The source of these data is patent US11247985B2, “Phenyl indole allosteric inhibitors of P97 ATPase” (University of Pittsburgh—Of the Commonwealth System of …, priority 2015, dated 2022).

The structures appear in SMILES notation. pIC50: −log10 of the molar value.

Chain of p97 ATPase WT (P55072 whole entry): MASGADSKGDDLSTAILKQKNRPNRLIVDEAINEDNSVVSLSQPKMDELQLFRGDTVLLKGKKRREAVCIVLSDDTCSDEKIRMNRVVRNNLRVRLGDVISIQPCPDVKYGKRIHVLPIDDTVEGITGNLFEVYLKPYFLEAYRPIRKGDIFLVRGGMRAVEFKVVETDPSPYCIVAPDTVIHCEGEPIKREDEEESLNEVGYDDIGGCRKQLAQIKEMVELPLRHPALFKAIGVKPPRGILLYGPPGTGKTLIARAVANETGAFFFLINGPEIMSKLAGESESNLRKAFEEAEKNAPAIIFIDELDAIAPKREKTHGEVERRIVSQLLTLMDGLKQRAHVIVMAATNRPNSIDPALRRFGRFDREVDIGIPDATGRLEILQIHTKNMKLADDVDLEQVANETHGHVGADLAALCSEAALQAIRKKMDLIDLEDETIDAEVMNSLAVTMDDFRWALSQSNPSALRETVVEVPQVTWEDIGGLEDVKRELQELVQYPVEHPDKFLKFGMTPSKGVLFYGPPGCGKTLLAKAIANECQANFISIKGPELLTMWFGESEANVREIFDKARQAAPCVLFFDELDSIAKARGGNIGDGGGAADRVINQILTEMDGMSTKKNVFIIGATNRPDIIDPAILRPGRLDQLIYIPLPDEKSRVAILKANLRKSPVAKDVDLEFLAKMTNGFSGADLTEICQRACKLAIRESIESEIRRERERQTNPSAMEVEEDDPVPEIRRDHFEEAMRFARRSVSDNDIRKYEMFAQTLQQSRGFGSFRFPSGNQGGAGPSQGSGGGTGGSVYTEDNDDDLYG

The test addresses p97 ATPase WT (Homo sapiens (Human), UniProt P55072). In words: p97 ADP-Glo assay. Format: biochemical. As to conditions: Table 3; read-out: ADPGlo IC50. The text has this:
ADP-Glo™ (Promega Corp.) is a bioluminescent, homogeneous assay that measures ADP formed from a biochemical reactions. Because of its high sensitivity, the assay is suitable for monitoring enzyme activities at very early substrate conversions requiring very low amount of enzymes.
The ADP-Glo assay can be conducted as described in Chou, T.-F.; Bulfer, S. L.; Weihl, C.
Take `CC(C)N1CCCN(CCNC2CCN(c3cccc(-c4cc5ccccc5[nH]4)c3)CC2)CC1`: the pIC50 (as a rule, the negative decadic logarithm of the IC50, by convention in mol/L) was 6.82. Under `NC1CCN(c2cccc(-c3cc4ccccc4[nH]3)c2)CC1` stands 5.74. Regarding `CC(C)N1CCN(CC(=O)NC2CCN(c3cccc(-c4cc5ccccc5[nH]4)c3)CC2)CC1`, the pIC50 was 5.12. Next, `CCC(C)N1CCN(CCNC2CCN(c3cccc(-c4cc5ccccc5[nH]4)c3)CC2)CC1` (stereo not drawn): 6.96; `CC(C)N1CCN(CCNC2CCN(c3cccc(-c4cc5c(F)cccc5[nH]4)c3)CC2)CC1`: 5.89; `CC(C)N1CCC(NC2CCN(c3cccc(-c4cc5cc(S(N)(=O)=O)ccc5[nH]4)c3)CC2)CC1`: 5.07. Under `CC(C)[C@H]1CC[C@H](NC2CCN(c3cccc(-c4cc5cc(C#N)ccc5[nH]4)c3)CC2)CC1` stands 5.21; under `CC(C)N1CCN(CCNC2CCN(c3cccc(-c4cc5cc(O)ccc5[nH]4)c3)CC2)CC1`, 7.00; under `c1cc(-c2cc3ccccc3[nH]2)cc(N2CCC(NCCN3CCOCC3)CC2)c1`, 6.04. Under `CC(C)N1CCC(NC2CCN(c3cccc(-c4cc5cc(C#N)ccc5[nH]4)c3)CC2)CC1` [drawing 226] stands 7.33.

In the case of `CC(C)N1CCC(NC2CCN(c3cccc(-c4cc5cc(C#N)ccc5[nH]4)c3)CC2)CC1` [drawing 239], the pIC50 is 5.31.

In the case of `CN1CCN(C(=O)CCNC2CCN(c3cccc(-c4cc5cc(F)ccc5[nH]4)c3)CC2)CC1`, the pIC50 is 6.82. Take `CON(C)C(=O)c1ccc2[nH]c(-c3cccc(N4CCC(NCCN5CCN(C(C)C)CC5)CC4)c3)cc2c1`: the pIC50 was 4.80. Next, `CC(C)N1CCC(NC2CCN(c3cccc(-c4cc5ccccc5[nH]4)c3)CC2)CC1`: 6.89; `CC(C)N1CCN(CCOC2CCN(c3cccc(-c4cc5ccccc5[nH]4)c3)CC2)CC1`: 4.92; `CC(C)N1CCN(C(=O)CCNC2CCN(c3cccc(-c4cc5cc(F)ccc5[nH]4)c3)CC2)CC1`: 6.92. Under `CC(C)N1CCN(C(=O)CCNC2CCN(c3cccc(-c4cc5ccccc5[nH]4)c3)CC2)CC1` stands 6.85. Under `Cc1ccc(N2CCC(NCCN3CCN(C(C)C)CC3)CC2)cc1-c1cc2cc(C#N)ccc2[nH]1` stands 7.07.
